Experiments:
Type in all cases: cell-based
Akt = experiment: Confocal microscopy of Akt localization; conditions: androgen-deprived LNCaP; 100 μM NTG, 2 hours
Experimental: After treatments, the cells cultured on coverslips were washed with PBS and fixed with 3% paraformaldehyde for 15 minutes at room temperature. The samples were permeabilized and blocked for one hour in 3% BSA 0.1% Tween in PBS. Akt was labeled with rabbit anti-Akt antibody (Cell signaling) and Alexa 546-conjugated anti-rabbit secondary antibody (Molecular Probes). After washing with PBS, the samples were mounted with DAPI Vectashield (Vector Laboratories) and viewed by Zeiss LSM 510 META laser-scanning confocal microscope (63× oil objective, 543 nm excitation).
LNCaP cells (+/−1 nM androgen) were treated with 0-100 μM enterolactone (ENL), matairesinol (MAT) or NTG for 1 hour prior to preparation of total cell lysates (FIG. 4A). The relative decrease in pAkt/Akt ratio was quantified from western blot analysis with Akt (60 kDa) and phospho-Akt(ser473) (Mean±SEM; n=4; Student's t-test *p<0.05, **p<0.01). Alternatively, androgen-deprived LNCaP cells were incubated with 100 μM NTG for 2 hours, fixed and labeled with Akt antibody followed by Alexa 546-conjugated secondary antibody. The samples were viewed at LSM 510 confocal microscope (63× oil objective, 543 nm excitation) (FIG. 4B). […] The western blot analysis with Akt, phospho-Akt(ser473), GSK-3β and phospho-GSK-3β(ser9) was quantified. […]

[1] = tested on: insulin receptor (IR) β-subunit and IGF-I receptor (IGF-IR) β-subunit; experiment: Immunoprecipitation of IRβ and IGF-IRβ after insulin or IGF-I stimulation, Western blot for phospho-tyrosine and PI3K p85α; conditions: serum-starved LNCaP; 40-100 μM NTG 2 hours before 10 nM insulin or IGF-I, 10 minutes
Experimental: The cells were treated with 0-100 μM lignans or solvent control for indicated times. Human recombinant isoleucin-zipper TRAIL (izTRAIL; kindly provided by Professor Henning Walczak) was used at 0-1 μg/ml with an incubation time of 20 hours. Prior to 10 minutes treatment with 10 nM IGF-1 (Millipore) or 10 nM insulin (Sigma) the cells were serum-starved (1% FCS) overnight. EGFR stimulation was performed on serum-starved cells with 20 ng/ml EGF for 5 minutes (a kind gift from Professor Klaus Elenius laboratory).
The cells cultured on […] were placed on ice and rinsed with cold PBS. The cells were lysed in 1 ml of cold lysis buffer (50 mM Tris pH 7.4, 150 mM NaCl, 1 mM EDTA, 1.25% CHAPS, 1 mM Na3OV4, 2 mM NaF, 10 mM sodium pyrophosphate and complete protease inhibitor cocktail [Roche Applied Science]) for 10 minutes. […]
To further investigate the specificity of this inhibitory effect, LNCaP cells were serum-starved overnight, treated with 0-100 μM NTG for 2 hours, and activated for 10 minutes with 10 nM insulin or IGF-I, after which insulin receptor (IR) β-subunit and IGF-I receptor (IGF-IR) β-subunit were immunoprecipitated (FIG. 5B). The precipitated complexes were analyzed by Western blotting for presence of PI3K p85α (85 kDa), IRβ (95 kDa), IGF-IRβ (95 kDa) and phospho-tyrosine and the expression of PI3K p85α, Akt and phospho-Akt(ser473) was probed from the lysates. […]

phospho-GSK-3β(ser9) = experiment: Western blot of GSK-3β / phospho-GSK-3β(ser9); conditions: LNCaP +/- 1 nM androgen; 100 μM NTG, 0-8 hours
Experimental: Whole cell lysates were prepared by lysing floating and attached cells in Laemmli sample buffer and boiling the samples for 10 minutes. Proteins were separated by SDS-PAGE and transferred on PVDF membrane (Millipore). Western blotting was performed using antibodies against Akt, phospho-Akt (Ser473), GSK-3β, phospho-GSK-3β (Ser9) and phospho-EGF receptor Tyr(1068) (Cell Signalling Technology), Actin (clone AC-40; Sigma-Aldrich), PI3K p85α (clone 4/PI3-Kinase; BD Pharmingen), EGF receptor, Insulin receptor β and IGF-I receptor β (Santa Cruz Biotechnology), and Phospho-tyrosine (clone 4G10; Millipore). HRP-conjugated secondary antibodies were from Southern Biotechnology Associates, Promega, and Amersham Biosciences. The results were visualized using the ECL method (Amersham Biosciences) on x-ray film. The presented Western blot results are representative of at least three independent experiments. […]
LNCaP cells (+/−1 nM androgen) were treated with 0-100 μM enterolactone (ENL), matairesinol (MAT) or NTG for 1 hour prior to preparation of total cell lysates (FIG. 4A). The relative decrease in pAkt/Akt ratio was quantified from western blot analysis with Akt (60 kDa) and phospho-Akt(ser473) (Mean±SEM; n=4; Student's t-test *p<0.05, **p<0.01). […] The western blot analysis with Akt, phospho-Akt(ser473), GSK-3β and phospho-GSK-3β(ser9) was quantified. […]

## COc1cc(CC2COC(=O)C2(O)Cc2ccc(O)c(OC)c2)ccc1O (stereo not shown) [NTG, Nortrachelogenin]
Akt
  cellular localization of Akt: increases cytoplasmic localization of Akt
[1]
  amount of receptor-associated PI3K p85: clearly reduced
  receptor tyrosine phosphorylation of IR and IGF-IR: decreased
phospho-GSK-3β(ser9)
  GSK-3β phosphorylation (pGSK-3β/GSK-3β ratio): downregulates Akt and GSK-3β phosphorylation

Source: patent publication US9168243B2, “Pharmaceutical compositions comprising 8-substituted dibenzylbutyrolactone lignans” (priority 2010, dated 2015)
